Experimental data reported in patent US20230348450A1, “CARBOXYLIC ACID-CONTAINING COMPOUNDS AS MODULATORS OF BIS-PHOSPHOGLYCERATE MUTASE FOR THE TREATMENT OF SICKLE CELL DISEASE” (Genzyme Corporation, priority 2020, published 2023).

What was measured:
[1] = biological target: human Bisphosphoglycerate mutase (hBPGM) (Homo sapiens (Human), UniProt P07738); assay: BPGM Phosphatase Assay; assay type: biochemical; settings: Table 6 additional results; read-out: huBPGM: phosphatase Enzyme EC50
Procedure: Solutions of the test compounds were then added to the plate and the DMSO content was normalized across the plate. The plate was incubated at RT for 15 min. Next, the substrate 2,3-BPG (5 μL) was added to all the wells, and the plate was sealed and incubated for 24 hr at RT. After incubation, BIOMOL green dye (40 μL) was added to all the wells, the plate was shaken to mix, and the plate was incubated at RT for 20-30 min.

[2] = biological target: hBPGM (Homo sapiens (Human), UniProt P07738); assay: BPGM Synthase Assay; assay type: biochemical; settings: Table 6 additional results; read-out: huBPGM: synthase Enzyme IC50
Method in brief: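 BPGM (5 nM) with GAPDH (0.4 U/mL) was incubated with compound for 30 min at RT in pH 7.4 Tris buffer with 3.23 mM KH2PO4 and 1 mM DTT. Reaction ran 60 min with NAD, 3PG and GAP (substrate solution 2 mM, 20 μM and 800 μM). After koningic acid stop, NADH fluorescence was read, then resorufin from diaphorase/resazurin coupling.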

Chain of hBPGM (P07738 whole entry, looked up): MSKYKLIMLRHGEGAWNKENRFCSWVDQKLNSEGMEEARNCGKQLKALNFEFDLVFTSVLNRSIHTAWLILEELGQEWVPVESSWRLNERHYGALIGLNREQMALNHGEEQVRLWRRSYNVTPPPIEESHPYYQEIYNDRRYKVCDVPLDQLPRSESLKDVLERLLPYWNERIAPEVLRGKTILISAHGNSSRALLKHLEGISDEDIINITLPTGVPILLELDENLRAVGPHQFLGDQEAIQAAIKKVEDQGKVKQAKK
Chain of human Bisphosphoglycerate mutase (hBPGM) (P07738 whole entry): as the sequence (P07738 whole entry, looked up) above

SMILES	EC50 [1]	IC50 [2]
Cc1ccc(Cc2nc(C)c(-c3cccc(-c4ccc(C(=O)O)c(O)c4)c3)s2)cn1 [Example 257]	160 nM	360 nM
Cc1nc(CNC(=O)C2CC2)sc1-c1csc(-c2cc(O)c(C(=O)O)cc2F)n1 [Example 232]	93 nM	60 nM
Cc1nc(CNC(=O)OCC(F)(F)F)sc1-c1csc(-c2cc(O)c(C(=O)O)cc2F)n1 [Example 136]	90 nM	310 nM
Cc1nc(CNc2ccn(C)n2)sc1-c1csc(-c2cc(O)c(C(=O)O)cc2F)n1 [Example 221]	35 nM	90 nM
Cc1nc(COc2cccnn2)sc1-c1csc(-c2cc(O)c(C(=O)O)cc2F)n1 [Example 131]	40 nM	42 nM
COC(=O)NCc1nc(C)c(-c2nsc(-c3ccc(C(=O)O)c(O)c3)n2)s1 [Example 193]	360 nM	170 nM
Cc1nc(C)c(-c2nc(-c3ccc(C(=O)O)c(O)c3)co2)s1 [Example 275]	> 25000 nM	5000 nM
Cc1nc(COc2ncccn2)sc1-c1cccc(-c2ccc(C(=O)O)s2)n1 [Example 88]	12000 nM	1000 nM
CC(=O)NCc1nc(C)c(-c2cccc(-c3ccc(C(=O)O)c(O)c3)c2)s1 [Example 278]	2100 nM	900 nM
CCOC(=O)NCc1nc(C)c(-c2csc(-c3cc(O)c(C(=O)O)cc3F)n2)s1 [Example 227]	90 nM	76 nM
COC(=O)NCc1nc(C)c(-c2cccc(-c3ccc(C(=O)O)c(O)c3)c2)s1 [Example 272]	520 nM	290 nM
COC(=O)NCc1nc(C)c(-c2csc(-c3cc(O)c(C(=O)O)cc3F)n2)s1 [Example 209]	470 nM	250 nM
Cc1nc(COc2ccccn2)sc1-c1csc(-c2cc(O)c(C(=O)O)cc2F)n1 [Example 163]	60 nM	170 nM
Cc1nc(CNC(=O)C2CC2)sc1-c1ccc(-c2ccc(C(=O)O)c(O)c2)s1 [Example 245]	820 nM	690 nM
Cc1nc(CNS(C)(=O)=O)sc1-c1csc(-c2cc(O)c(C(=O)O)cc2F)n1 [Example 224]	300 nM	260 nM
Cc1nc(COC(N)=O)sc1-c1cccc(-c2ccc(C(=O)O)c(O)c2)c1 [Example 252]	1000 nM	1000 nM
Cc1nc(CNC(=O)c2cccnn2)sc1-c1cccc(-c2cc(O)c(C(=O)O)cc2F)n1 [Example 153]	70 nM	99 nM
Cc1nc(Cc2ccccc2)sc1-c1cccc(-c2ccc(C(=O)O)c(O)c2)c1 [Example 289]	130 nM	1200 nM
Cc1nc(COc2ccc(Cl)cn2)sc1-c1cccc(-c2ccc(C(=O)O)c(O)c2)c1 [Example 74]	1100 nM	1800 nM
Cc1cccnc1OCc1nc(C)c(-c2cccc(-c3ccc(C(=O)O)c(O)c3)c2)s1 [Example 86]	200 nM	1500 nM
Cc1nc(CNC(=O)CN(C)C)sc1-c1csc(-c2cc(O)c(C(=O)O)cc2F)n1 [Example 120]	> 25000 nM	500 nM
Cc1nc(COc2ncccn2)sc1-c1cccc(-c2ccc(C(=O)O)cc2F)n1 [Example 83]	1400 nM	360 nM
Cc1nc(COc2cccc(C#N)c2)sc1-c1cccc(-c2ccc(C(=O)O)c(O)c2)c1 [Example 108]	500 nM	3200 nM
Cc1nc(COc2ncccn2)sc1-c1cccc(-c2ccc(C(=O)O)c(O)c2)c1 [Example 142]	130 nM	190 nM
Cc1nc(COc2cc(C(F)(F)F)nn2C)sc1-c1cccc(-c2ccc(C(=O)O)cc2)n1 [Example 65]	> 25000 nM	2600 nM
Cc1nc(C)c(-c2cc(-c3cc(O)c(C(=O)O)cc3F)sn2)s1 [Example 183]	280 nM	660 nM
Cc1nc(NCC(=O)N(C)C)sc1-c1csc(-c2cc(O)c(C(=O)O)cc2F)n1 [Example 178]	3100 nM	200 nM
Cc1nc(C(=O)c2ccn(C)n2)sc1-c1csc(-c2ccc(C(=O)O)c(O)c2)n1 [Example 190]	610 nM	360 nM

SMILES	EC50 [1]	IC50 [2]
Cc1nc(CN2CCCC2=O)sc1-c1cccc(-c2ccc(C(=O)O)c(O)c2)c1 [Example 260]	5600 nM	1400 nM
Cc1nc(C)c(-c2nsc(-c3ccc(C(=O)O)c(O)c3)n2)s1 [Example 283]	6500 nM	1300 nM
Cc1nc(Cc2cccnc2)sc1-c1csc(-c2cc(O)c(C(=O)O)cc2F)n1 [Example 228]	55 nM	87 nM
Cc1nc(C)c(-c2csc(-c3cc(O)c(C(=O)O)c(F)c3)n2)s1 [Example 255]	1800 nM	760 nM
COCCOCCOCCOCc1nc(C)c(-c2csc(-c3ccc(C(=O)O)cc3)n2)s1 [Example 270]	> 25000 nM	4600 nM
Cc1nc(CNC2CCOCC2)sc1-c1cccc(-c2ccc(C(=O)O)cc2)c1 [Example 51]	4300 nM	21000 nM
Cc1nc(Cn2cccn2)sc1-c1cccc(-c2cc(O)c(C(=O)O)cc2F)n1 [Example 223]	190 nM	150 nM
Cc1nc(CNC(=O)N(C)C)sc1-c1csc(-c2cc(O)c(C(=O)O)cc2F)n1 [Example 226]	110 nM	56 nM
COC(=O)NCc1nc(C)c(-c2csc(-c3ccc(C(=O)NS(=O)(=O)c4ccc(OCC(=O)O)cc4)cc3)n2)s1 [Example 66]	110 nM	61 nM
Cc1nc(CNC(=O)c2cccnn2)sc1-c1cccc(-c2ccc(C(=O)O)cc2)c1 [Example 71]	> 25000 nM	560 nM
Cc1nc(Cc2ccccc2)sc1-c1cccc(-c2cc(O)c(C(=O)O)cc2F)c1 [Example 105]	290 nM	1600 nM
Cc1nc(COc2cccc(N)n2)sc1-c1csc(-c2cc(O)c(C(=O)O)cc2F)n1 [Example 204]	250 nM	270 nM
Cc1nc(Cc2cccnc2)sc1-c1cccc(-c2ccc(C(=O)O)cc2)c1 [Example 277]	1100 nM	860 nM
Cc1nc(CNC(=O)C2CC2)sc1-c1csc(-c2ccc(C(=O)O)c(O)c2)n1 [Example 249]	210 nM	180 nM
Cc1nc(CNc2ncccn2)sc1-c1csc(-c2cc(O)c(C(=O)O)cc2F)n1 [Example 149]	70 nM	30 nM
Cc1nc(Cc2ccccn2)sc1-c1cccc(-c2ccc(C(=O)O)c(O)c2)c1 [Example 282]	110 nM	750 nM
Cc1nc(C)c(-c2csc(-c3ccc(C(=O)O)c(O)c3)n2)s1 [Example 184]	80 nM	1500 nM
Cc1nc(CNC(=O)C(C)C)sc1-c1csc(-c2cc(O)c(C(=O)O)cc2F)n1 [Example 231]	170 nM	52 nM
Cc1nc(COC(=O)N(C)C)sc1-c1csc(-c2cc(O)c(C(=O)O)cc2F)n1 [Example 158]	> 25000 nM	44 nM
Cc1nc(Cc2cccnc2)sc1-c1cccc(-c2cc(O)c(C(=O)O)cc2F)n1 [Example 217]	120 nM	110 nM
Cc1nc(C)c(-c2csc(-c3ccc(C(=O)O)c(O)c3F)n2)s1 [Example 240]	2500 nM	2300 nM
Cc1nc(Cc2ccccc2)sc1-c1csc(-c2cc(O)c(C(=O)O)cc2F)n1 [Example 182]	50 nM	560 nM
Cc1nc(COc2ncccn2)sc1-c1cccc(-c2csc(C(=O)O)n2)n1 [Example 87]	8700 nM	3400 nM
COC(=O)NCc1nc(C)c(-c2csc(-c3ccc(C(=O)O)cc3)n2)s1 [Example 239]	> 25000 nM	730 nM
Cc1nc(C)c(-c2nsc(-c3cc(O)c(C(=O)O)c(F)c3F)n2)s1 [Example 134]	340 nM	1000 nM
Cc1nc(CNC(=O)c2ccccc2)sc1-c1csc(-c2cc(O)c(C(=O)O)cc2F)n1 [Example 212]	100 nM	160 nM
Cc1nc(C)c(-c2csc(-c3cc(O)c(C(=O)O)cn3)n2)s1 [Example 284]	2900 nM	2800 nM
